SMILES strings stand for the structures. Where two headings read alike, the source gives them in different places.

The text below walks through data of patent US8063101B2, “Carotenoid analogs and derivatives for the prevention of platelet aggregation” (Cardax Pharmaceuticals, Inc., priority 2007, dated 2011).

Series [1] has as its system vascular platelets. In words: Platelet-derived nitric oxide (NO) release after IP3 stimulation, NO nanosensor. The class given is cell-based, Wistar-Kyoto (WKY) rats. The procedure:
Wistar-Kyoto (WKY) rats were anaesthetized and blood was collected directly from the heart using a 10 mL syringe that contained 3.8% sodium citrate (9:1, v v^−1). […] The platelet rich plasma (PRP) was then removed by aspiration. […] The number of platelets was counted and adjusted to 3.5×10^8 per mL with Tyrode-HEPES buffer. The platelets were incubated in an aggregometer with a NO nanosensor (working electrode) placed in the platelet suspension. […] All measurements of NO release were conducted in Hank's balanced salt solution (HBSS) at 37° C. The sensor operated with a three-electrode system: nanosensor (working electrode), saturated calomel electrode (reference electrode), and platinum wire (counter electrode, 0.5 mm diameter). The three electrodes were connected to a potentiostat/galvanostat PAR273. The baseline was stabilized after ˜20 s. With a nanoinjector, the test compounds were injected onto the surface of the cells following solubilization in buffer. In experiments with multiple compounds, the compounds were injected simultaneously. […] Data were acquired with the use of custom software. Amperograms (current vs. time curves) were recorded with a Guniry FAS1 Femtostat (Warminster, Pa.). The nanosensor for NO was calibrated using saturated solution (concentration 1.82 mM verified with the coulometric method). […] The data were presented as mean±S.D. for each of the triplicate measurements. The data (calculation and plotting) were transferred to Microcal Origin Software (OriginLab Corp., Northampton, Mass.). […] The NO concentration was calculated using current responses obtained from standard NO solution (prepared from […] stock solution, saturated aqueous NO solution).

Details of series [2]: species or system rats. Particulars: in vivo, po, 500 mg/kg. The procedure:
In one experiment, astaxanthin; all-trans 3S,3'S-astaxanthin diester disuccinate disodium salt (hereinafter “ADS”); and all-trans 3S,3'S-astaxanthin diester […] tetrahydrochloride salt (hereinafter “ADL”) were administered orally to separate rats as a lipid suspension. A single dose that included 500 mg/kg of the carotenoid/carotenoid derivative was administered to each rat. (See FIG. 20, PK Study #CXPK07201). Plasma from each of the rats was collected 4 hours after ingestion and 8 hours after ingestion and all samples were analyzed by high performance liquid chromatography (“HPLC”). HPLC analysis was used to detect the presence of free underivatized carotenoid (e.g., in this example, astaxanthin) in the plasma. HPLC chromatograms were collected for each plasma sample taken.

Series [3] can be described thus: Dog PK of astaxanthin derivatives (CXPK07402, 07404, 07405, 07406). As to the method:
In another experiment, ADL was administered to non-naïve beagle dogs orally (as an aqueous suspension containing 0.5% carboxymethylcellulose) and intravenously as an aqueous solution. Oral doses that included 10 mg/kg of the carotenoid derivative, 100 mg/kg of the carotenoid derivative, and 500 mg/kg of the carotenoid derivative were administered to each dog. The intravenous dosage was 5 mg/kg. (See FIG. 20, PK Study #CXPK07402). For each carotenoid derivative given to the dogs in this example, the amount of all astaxanthin isomers, the amount of trans astaxanthin isomers, and the amount of cis astaxanthin isomers in the plasma was determined at predefined time intervals for 3 days (72 hours).
In another experiment, ADL was administered to naïve beagle dogs orally (as an aqueous suspension containing 0.5% carboxymethylcellulose) twice a day for six days. Each oral dose included 75 mg/kg of the carotenoid derivative. (See FIG. 20, PK Study #CXPK07404). For each carotenoid derivative given to the dogs in this example, the amount of all astaxanthin isomers, the amount of trans astaxanthin isomers, and the amount of cis astaxanthin isomers in the plasma was determined at predefined time intervals for 6 days.
In another experiment, all-trans 3S,3′ S-astaxanthin diester di-beta-alanine dihydrochloride salt (hereinafter “ADA”); ADG; ADL; ADSa; and ADS were administered orally to separate non-naïve dogs as a aqueous suspension containing 0.5% carboxymethylcellulose. A single dose that included 20 mg/kg of the carotenoid derivative was administered to each dog. (See FIG. 20, PK Study #CXPK07405). For each carotenoid derivative given to the dogs in this example, the amount of all astaxanthin isomers was determined at predefined time intervals for 3 days (72 hours).
In another experiment, ADG or ADSa was administered to non-naïve beagle dogs orally (as an aqueous suspension containing 0.5% carboxymethylcellulose). Oral doses included either 50 mg/kg of the carotenoid derivative or 100 mg/kg of the carotenoid derivative. (See FIG. 20, PK Study #CXPK07406). For each carotenoid derivative given to the dogs in this example, the amount of all astaxanthin isomers, the amount of trans astaxanthin isomers, and the amount of cis astaxanthin isomers in the plasma was determined at predefined time intervals for 3 days (72 hours).

For series [4] the following is noted: rat, in vivo. As to the method:
In a another experiment, all-trans 3S,3′S-astaxanthin diester diglycinate dihydrochloride salt (hereinafter “ADG”); all-trans 3S,3′S-astaxanthin diester disarcosinate dihydrochloride salt (hereinafter “ADSa”); and ADL were administered orally to separate rats as a aqueous suspension containing 0.5% carboxymethylcellulose. A single dose that included 40 mg/kg of the carotenoid derivative was administered to each rat. (See FIG. 20, PK Study #CXPK07202). For each carotenoid derivative given to the rats in this example, the amount of all astaxanthin isomers, the amount of trans astaxanthin isomers, and the amount of cis astaxanthin isomers in the plasma was determined at predefined time intervals for 3 days (72 hours).
In another experiment, ADG; ADSa; and ADL were administered to separate rats intravenously as an aqueous solution. A single dose that included 5 mg/kg of the carotenoid derivative was administered to each rat. (See FIG. 20, PK Study #CXPK07202). For each carotenoid derivative given to the rats in this example, the amount of all astaxanthin isomers, the amount of trans astaxanthin isomers, and the amount of cis astaxanthin isomers in the plasma was determined at predefined time intervals for 3 days (72 hours).

Series [5] is described as follows: Aqueous dispersibility. As to conditions: USP-purified water; no heat, detergents, co-solvents. In kind it is physicochemical. An excerpt:
In some embodiments, highly water-dispersible C40 carotenoid derivatives may include natural source RRR-lutein (β,ε-carotene-3,3′-diol) derivatives. Derivatives may be synthesized by esterification with inorganic phosphate and succinic acid, respectively, and subsequently converted to the sodium salts. Deep orange, evenly colored aqueous suspensions were obtained after addition of these derivatives to USP-purified water. […] Aqueous suspensions may be obtained without the addition of heat, detergents, co-solvents, or other additives.
Disodium disuccinate astaxanthin (DDA; see FIG. 1B) was synthesized from commercially available crystalline astaxanthin (Buckton Scott, India) as previously described in Frey, et al. (“The efficient synthesis of disodium disuccinate astaxanthin (Cardax).” Org Process Res Dev 8: 796-801, 2004.). The final product purity was 97% (as area under the curve) by HPLC analysis. DDA was dissolved directly in sterile-filtered deionized water. The maximum aqueous dispersibility of DDA is approximately 10 mM, or 8.64 mg/ml. Vehicle consisted of isotonic sterile 0.9% NaCl solution.

Series [6] concerns human umbilical vein endothelial cells (HUVEC). Nature of the series: Calcium ionophore (CaI)-stimulated total nitric oxide release from HUVEC. In kind it is cell-based. Particulars: 3S,3′S-AST 5.0 μM, clopidogrel 1.0 μM, alone or in combination; FIG. 5. As to the method:
(§1) Human umbilical vein endothelial cells (HUVECs) were isolated into primary cultures from white female donors by Clonetics (San Diego, Calif.), essentially as described (Mason et al. 2005). All donors were reported to be healthy and none had pregnancy or prenatal complications. All measurements were recorded in vitro using a sensitive porphyrinic probe, also as previously described. HUVEC cells were grown in Ham's F12K medium with 2 mM L-glutamine adjusted to contain 1.5 g/L sodium bicarbonate and supplemented with 0.1 mg/mL heparin and 0.03-0.05 mg/mL endothelial cell growth supplement (ECGS) plus 10% fetal bovine serum. The HUVEC cells were kept in an atmosphere of elevated CO2 concentration (5%).
All measurements of NO release were conducted in Hank's balanced salt solution (HBSS) at 37° C. The sensor operated with a three-electrode system: nanosensor (working electrode), saturated calomel electrode (reference electrode), and platinum wire (counter electrode, 0.5 mm diameter). The three electrodes were connected to a potentiostat/galvanostat PAR273. […] The current (amps) proportional to the NO concentration was measured with the sensor, which operated in amperometric mode at a constant potential of 0.63 V. Data were acquired with the use of custom software. Amperograms (current vs. time curves) were recorded with a Guniry FAS1 Femtostat (Warminster, Pa.).

For series [7] the test system is unchanged. Nature of the series: Calcium ionophore (CaI)-stimulated total peroxynitrite release from HUVEC. In kind it is cell-based. Particulars: 3S,3′S-AST 5.0 μM, clopidogrel 1.0 μM, alone or in combination; FIG. 6. As to the method: as §1
For series [8] the test system is unchanged. In words: CaI-stimulated NO/OONO- release ratio from HUVEC. The class given is cell-based. As to conditions: 3S,3′S-AST 5.0 μM, clopidogrel 1.0 μM, alone or in combination; FIG. 7. As to the method: as §1

As to `CCC(C)(C)C(=O)O[C@H]1C[C@@H](C)C=C2C=C[C@H](C)[C@H](CC[C@@H]3C[C@@H](O)CC(=O)O3)[C@H]21` [simvastatin, reference compound], in series [1] (1.0 μM, IP3 1.0 μM, FIG. 11), the “effect on platelet-derived NO release” value is “no effect”.
In the case of `CC1=C(/C=C/C(C)=C/C=C/C(C)=C/C=C/C=C(C)/C=C/C=C(C)/C=C/C2=C(C)C(=O)[C@@H](OC(=O)CCC(=O)[O-])CC2(C)C)C(C)(C)C[C@H](OC(=O)CCC(=O)[O-])C1=O.[Na+].[Na+]` (relative stereo) [ADS, all-trans 3S,3′S-astaxanthin diester disuccinate disodium salt], in series [2], the “free astaxanthin in rat plasma” value is given as “significant amount”. Also, in series [3] (dog, in vivo, po, 20 mg/kg), the “absorption and metabolism to astaxanthin in plasma” value (from here on “absorption and metabolism”) is “absorbed by the dogs and metabolized”.
For `CC1=C(/C=C/C(C)=C/C=C/C(C)=C/C=C/C=C(C)/C=C/C=C(C)/C=C/C2=C(C)C(=O)[C@@H](OC(=O)CN)CC2(C)C)C(C)(C)C[C@H](OC(=O)CN)C1=O.Cl.Cl` (relative stereo) [ADG, all-trans 3S,3′S-astaxanthin diester diglycinate dihydrochloride salt], the “absorption and metabolism” value was “absorbed by the dogs and metabolized” in series [3] (dog, in vivo, po, 20 mg/kg); “absorbed by the rats and metabolized” in series [4] (iv, 5 mg/kg); “absorbed by the rats and metabolized” in series [4] (po, 40 mg/kg).
In the case of `CC1=C(/C=C/C(C)=C/C=C/C(C)=C/C=C/C=C(C)/C=C/C=C(C)/C=C/C2=C(C)C(=O)[C@@H](OC(=O)[C@@H](N)CCCCN)CC2(C)C)C(C)(C)C[C@H](OC(=O)[C@@H](N)CCCCN)C1=O.Cl.Cl.Cl.Cl` (relative stereo) [ADL, all-trans 3S,3′S-astaxanthin diester dilysinate tetrahydrochloride salt], the “free astaxanthin in rat plasma” value in series [2] is “significant amount”. The “absorption and metabolism” value in series [3] (dog, in vivo, po, 20 mg/kg) was “absorbed by the dogs and metabolized”; in series [3] (dog, in vivo, po, 75 mg/kg), “absorbed by the dogs and metabolized”; in series [4] (iv, 5 mg/kg), “absorbed by the rats and metabolized”; in series [4] (po, 40 mg/kg) it was “absorbed by the rats and metabolized”.
For the compound `CC(C=CC=C(C)C=CC1=C(C)CC(OC(=O)CCC(=O)[O-])CC1(C)C)=CC=CC=C(C)C=CC=C(C)C=CC1C(C)=CC(OC(=O)CCC(=O)[O-])CC1(C)C.[Na+].[Na+]` (centres unmarked), the aqueous dispersibility in series [5] is given as 2.85 mg/mL.
On to `CC(C=CC=C(C)C=CC1=C(C)C(=O)C(OC(=O)CCN)CC1(C)C)=CC=CC=C(C)C=CC=C(C)C=CC1=C(C)C(=O)C(OC(=O)CCN)CC1(C)C.Cl.Cl` (stereo not drawn) [ADA, all-trans 3S,3′ S-astaxanthin diester di-beta-alanine dihydrochloride salt], for which the “absorption and metabolism” value in series [3] (non-naïve dogs, single oral 20 mg/kg) was “absorbed by the dogs and metabolized”.
As for `COC(=O)[C@H](c1ccccc1Cl)N1CCc2sccc2C1` [clopidogrel, reference compound], the “total NO release from vascular platelets” value in series [1] (IP3 stimulation, homochiral astaxanthin 5.0 μM, clopidogrel 1.0 μM, controls 6.6±0.3, mean±S.D.) was 10.2±0.4 molecules NO×10^6/platelet. Further, the “effect on CaI-stimulated total nitric oxide release from HUVEC” value in series [6] was “did not significantly change”. In addition, the “effect on CaI-stimulated total peroxynitrite (OONO−) release from HUVEC” value in series [7] is given as “did not significantly change”. Further, in series [8], the “effect on CaI-stimulated NO/OONO− release ratio from HUVEC” value was “did not significantly change”.
